We go through 3 compounds from PMC11578313, “Miniaturized Modular Click Chemistry‐enabled Rapid Discovery of Unique SARS‐CoV‐2 M^pro Inhibitors With Robust Potency and Drug‐like Profile” (Advanced Science, 2024).

Structures are written as SMILES. Where “and” joins values, the source holds several entries; their conditions need not be identical. Identical values can stand only once. Like-named read-outs stand apart in the source and are kept apart here.

Data set [1] concerns SARS‐CoV‐2 (hCoV‐19/Korea/KCDC06/2020, wild type). Nature of the data set: microbe, parasite or virus in culture. Format: cell-based.
Data set [2] concerns SARS‐CoV‐2. Put plainly: microbe, parasite or virus in culture. Format: cell-based.
Another data set concerns SARS-CoV-2 M^pro. The note with it: cited from earlier work.
The subject of data set [3] is SARS‐CoV‐2. The note with it: Vero E6; cited from earlier work.
Data set [4] can be described thus: in vitro. The note with it: human.
Another data set has as its target SARS‐CoV‐2 M^pro (Severe acute respiratory syndrome coronavirus 2, UniProt P0DTD1). Nature of the data set: SARS‐CoV‐2 main protease enzymatic assay (FRET inhibitor screening kit). The class given is biochemical.
The conditions of data set [5]: cited from earlier work.
The conditions of data set [6]: cytotoxicity; cited from earlier work.
Data set [7] in a line: in vitro. The conditions noted are these: African green monkey.
The subject of data set [8] is SARS‐CoV‐2 Omicron (hCoV‐19/Korea/KDCA447321/2021). Put plainly: microbe, parasite or virus in culture. The class given is cell-based. The conditions noted are these: Severe acute respiratory syndrome coronavirus 2, Calu-3, read-out: EC50 ± SD, SARS‐CoV‐2 Omicron.
Another data set is described as follows: in vivo. The note with it: ICR, mouse, po, p.o. 10 mg kg^−1 with 20 mg kg^−1 ritonavir, ICR mice, n = 3.
A short description of data set [9]: in vitro. The conditions noted are these: human. The source holds these as a separate data set.
Data set [10] is described as follows: in vitro. The note with it: rhesus monkey.
The subject of a further data set is MRC‐5 cells. The conditions noted are these: human.
In the next data set the test system is HCoV‐OC43. Nature of the data set: microbe, parasite or virus in culture. Format: cell-based. The conditions noted are these: Betacoronavirus 1, OC43, MRC5, read-out: EC50 ± SD, HCoV‐OC43.
For data set [11], the system named is SARS‐CoV‐2 Gamma (hCoV‐19/Korea/KDCA95637/2021). Put plainly: microbe, parasite or virus in culture. Format: cell-based. The note with it: Severe acute respiratory syndrome coronavirus 2; Calu‐3; read-out: EC50 ± SD, SARS‐CoV‐2 Gamma.
Another data set relates to HCoV‐NL63. Put plainly: microbe, parasite or virus in culture. The class given is cell-based. The note with it: Human coronavirus NL63, LLC-MK2, read-out: EC50 ± SD, HCoV‐NL63.
For a further data set, the system named is MERS‐CoV. Nature of the data set: microbe, parasite or virus in culture. Format: cell-based. The note with it: Middle East respiratory syndrome-related coronavirus, Huh-7, read-out: EC50 ± SD, MERS‐CoV.
Data set [12] relates to SARS‐CoV‐2 Delta (hCoV‐19/Korea/KDCA119861/2021). Put plainly: microbe, parasite or virus in culture. Format: cell-based. The note with it: Severe acute respiratory syndrome coronavirus 2; Calu‐3; read-out: EC50 ± SD, SARS‐CoV‐2 Delta.
The subject of another data set is HCoV‐229E. Nature of the data set: microbe, parasite or virus in culture. Format: cell-based. The conditions noted are these: Human coronavirus 229E, MRC5, read-out: EC50 ± SD, HCoV‐229E.
The mark [13] stands for this setting: Severe acute respiratory syndrome coronavirus 2, Calu-3, Calu‐3 cells, with CP‐100356, read-out: EC50 ± SD, Calu‐3 cells, with P‐gp inhibitor.
Setting [14] is: Severe acute respiratory syndrome coronavirus 2, Calu-3, Calu‐3 cells, without CP‐100356, read-out: EC50 ± SD, Calu‐3 cells, without P‐gp inhibitor.
[15] abbreviates: Severe acute respiratory syndrome coronavirus 2, Vero cells, with CP‐100356, read-out: EC50 ± SD, Vero cells, with P‐gp inhibitor.

With `O=C(NCc1cccs1)C1CN(C(=O)c2cccnc2)CCN1c1ccc(Cl)c(Cl)c1` (centres unmarked) [GC‐14, reference compound], the EC50 in data set [1] (setting [13]) was 755 ± 46 nM; in data set [1] (setting [14]) it was 1420 ± 57 nM; with SARS‐CoV‐2 [2] (setting [15]), 3420 ± 443 nM; in the data set on SARS‐CoV‐2 [3] it was 1100 nM. In addition, the IC50 in the data set on SARS-CoV-2 M^pro was 400 nM; on SARS‐CoV‐2 M^pro, 800 nM and 750 nM. For the same compound, the CC50 at 2 day in the data set “in vitro [4]” (CC50, Calu‐3 cells, MTT assay) is > 100000 nM. The “inhibition of M^pro enzymatic activity, first round of screening” value at SARS‐CoV‐2 M^pro came out at 98%. Moreover, the “half‐life” value in [5] is given as 1.72 h. The oral bioavailability in data set [5] was 7.2%.

In the case of `Cc1cncc(C(=O)N2C[C@H]3CC[C@@H](C2)N3C(c2cccc(F)c2)c2cccc(F)c2)c1` [AA‐625, reference compound], the CC50 in data set [6] was 22500 nM. Also, the EC50 was 148 ± 7 nM in data set [1] (Calu‐3 cells, without CP‐100356, read-out: EC50 ± SD, Calu‐3 cells, without P‐gp inhibitor); < 10 nM in data set [1] (setting [13]); 150 nM in data set [1] (setting [14]); 2020 ± 76 nM in the data set on SARS‐CoV‐2 [2] (setting [15]); 2050 ± 56 nM in the data set on SARS‐CoV‐2 [2] (Severe acute respiratory syndrome coronavirus 2, Vero cells, without CP‐100356, read-out: EC50 ± SD, Vero cells, without P‐gp inhibitor). Also, the CC50 at 2 day in the data set “in vitro [7]” was 43900 ± 2940 nM; in “in vitro [4]” (CC50 (Table 3), Calu‐3 cells) it was 42900 ± 414 nM; in “in vitro [4]” (CC50, Calu‐3 cells, MTT assay), > 100000 nM. Further, the IC50 against SARS‐CoV‐2 M^pro is 900 nM and 904 nM. Moreover, the “inhibition of M^pro enzymatic activity, first round of screening” value on SARS‐CoV‐2 M^pro is recorded as 57%. Also, at SARS‐CoV‐2 M^pro (5 μM, read-out: Inhibitionrate at @5μM), the inhibition at 5 µM was 87.9%.

In the case of `CC(C)(C)[C@H](NC(=O)C(F)(F)F)C(=O)N1C[C@H]2[C@@H]([C@H]1C(=O)N[C@H](C#N)C[C@@H]1CCNC1=O)C2(C)C` [Nirmatrelvir, reference compound], the EC50 in [8] is 3390 ± 245 nM; in [1] (Severe acute respiratory syndrome coronavirus 2, Calu-3, read-out: EC50, anti‐SARS‐CoV‐2 activity in Calu‐3 cells (Figure 3B)) it was 1950 nM; in data set [1] (Severe acute respiratory syndrome coronavirus 2, Calu-3, read-out: EC50 ± SD, Calu‐3 cells, with P‐gp inhibitor), < 46 nM; in [1] (Severe acute respiratory syndrome coronavirus 2, Calu-3, read-out: EC50 ± SD, Calu‐3 cells, without P‐gp inhibitor), 1000 ± 31 nM; in data set [1] (Severe acute respiratory syndrome coronavirus 2, Calu-3, read-out: EC50 ± SD, SARS‐CoV‐2 Wild‐type) it was 2780 nM; in the data set with SARS‐CoV‐2 [2] (Severe acute respiratory syndrome coronavirus 2, Vero, read-out: EC50 ± SD, Vero cells, with P‐gp inhibitor), < 46 nM. Besides, the EC50 in the data set on SARS‐CoV‐2 [2] (Severe acute respiratory syndrome coronavirus 2, Vero, read-out: EC50 ± SD, Vero cells, without P‐gp inhibitor) was 2080 ± 214 nM; in the data set with HCoV‐OC43, < 46 nM; in data set [11], 3430 ± 519 nM; with HCoV‐NL63, > 100000 nM; in the data set on MERS‐CoV it was 58 nM; in data set [12], 3700 ± 598 nM. The EC50 in the data set with HCoV‐229E worked out at 378 nM. In addition, the Cmax in the data set “in vivo” (10 mg/kg, Cmax, p.o. in combination with ritonavir) turned out to be 7450 ± 715 ng/mL. Moreover, the mean residence time MRT turned out to be 1.55 ± 0.051 h in the data set “in vivo” (10 mg/kg, MRT0‐t, p.o. in combination with ritonavir) and 1.55 ± 0.055 h in “in vivo” (10 mg/kg, MRT0‐∞, p.o. in combination with ritonavir). Besides, in “in vivo” (10 mg/kg, t1/2, p.o. in combination with ritonavir), the half-life is 0.692 ± 0.204 h. Besides, the area under the curve (AUC) in “in vivo” (AUC0‐t, p.o. in combination with ritonavir) worked out at 14600 ng·h/mL. Besides, the CC50 in the data set “in vitro [9]”, in the data set “in vitro [10]”, in the data set with MRC‐5 cells and in the data set “in vitro [4]” was > 100000 nM each time. Besides, the CC50 at 2 day was > 100000 nM in “in vitro [7]”; > 100000 nM in the data set “in vitro [4]” (CC50 (Table 3), Calu‐3 cells); > 100000 nM in the data set “in vitro [4]” (CC50, Calu‐3 cells, MTT assay).
